This test concerns SN12K1 renal. Nature of the test: growth of human tumour cells (NCI), 48 h.

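Step 1: Grow cells in 96-well plates. Step 2: Expose to compound for 48 hours at 5 concentrations. Step 3: Interpolate endpoints linearly; if unreached, use highest concentration. Abbreviation: GI50, concentration required for 50% inhibition of growth. Definition used: TGI = concentration required for complete inhibition of growth.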

As to `[C-]#[O+].[Cl][Sn]([Cl])[Cl].[Cl][Sn]([Cl])[Cl].[Pt].c1cnc2c(c1)ccc1cccnc12`, the GI50 was 3.37 µM and the TGI amounted to 16.7 µM.
In turn, `Cc1cc(-c2ccc(N=Nc3ccc4c(S(=O)(=O)O)cc(S(=O)(=O)O)c(N)c4c3O)c(C)c2)ccc1N=Nc1ccc2c(S(=O)(=O)O)cc(S(=O)(=O)O)c(N)c2c1O` came in with a TGI of over 100 µM.

Source of the values: PubChem BioAssay (NCI).
